Experimental data published in US20090221829A1 (priority 2005, published 2009).
pIC50: −log10 of the molar value. Read-outs that look alike come from different tables or passages of the source.

How the values were obtained:
[1] = tested on: Candida albicans(KCTC 1940), Aspergillus niger (ATCC 9642) and Saccharomyces cerevisiae; test: Relative antifungal activity by agar dilution method (vs Miconazole); type: cell-based;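 note: scores 5 to 7 mean a lower fungicidal concentration than Miconazole so higher is more potent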
Description: Novel compounds represented by the above chemical formula (I), and the relative activities in accordance with the agar dilution method in Sabouraud dextrose agar media, Czapek agar media and Yeast Extract-Peptone-Dextrose agar media for Candida albicans(KCTC 1940), Aspergillus niger (ATCC 9642) and Saccharomyces cerevisiae are described respectively in following Table 1.

[2] = tested on: various kinds of Candida; test: MIC (Minimal Inhibitory Concentration) data; type: cell-based
[3] = Oral toxicity test (general symptoms, weight change, lethal case); type: in vivo, rats (SD); details: for LD50: SD, rat, in vivo, 1000 mg/kg, rats, oral, read-out: Acute toxicity LD50; for general symptom / lethal case / weight change: oral, 1,000 mg/kg, suspended in propylene glycol, SD rats
Method: Meanwhile, the toxicity test of the compound in table II of the present invention was performed using […]. The compound was suspended in propylene glycol. The resulting suspension was medicated respectively on 6 female rats and 5 male rats (SD) of which age are 5 weeks, via oral after 12 hours starvation. The general symptoms, weight change and lethal case of the above rats were investigated.
In cases of the tests of the compounds (Compound No. 12, 119, 134, 148, 150)(delivery of 1,000 mg/kg), the general symptom and weight change were normal and the lethal case was not observed.

[4] = tested on: salmonella typhimurium; test: Bacterial reverse mutation test (Ames test); type: cell-based
[5] = tested on: cultured lung cells derived from chinese hamster; test: Chromosome aberration test; type: cell-based
[6] = Micronucleus test; type: in vivo
[7] = biological target: sterol-24-methyl transferase (Candida albicans, UniProt O74198); type: biochemical; details: in vitro, read-out: Relative Activity (IC50 class)
Chain of sterol-24-methyl transferase (O74198 whole entry): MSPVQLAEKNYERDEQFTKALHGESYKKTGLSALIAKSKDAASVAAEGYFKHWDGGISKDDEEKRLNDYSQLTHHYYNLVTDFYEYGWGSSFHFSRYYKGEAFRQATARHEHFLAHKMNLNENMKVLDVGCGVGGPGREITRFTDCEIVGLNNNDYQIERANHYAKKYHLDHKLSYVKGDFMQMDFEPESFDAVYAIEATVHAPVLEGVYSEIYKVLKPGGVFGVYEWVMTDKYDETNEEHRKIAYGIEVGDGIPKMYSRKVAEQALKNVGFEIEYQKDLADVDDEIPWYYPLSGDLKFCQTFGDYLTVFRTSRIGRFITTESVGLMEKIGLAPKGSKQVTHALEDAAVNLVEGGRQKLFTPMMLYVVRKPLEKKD
Description: Moreover, the relative activity for sterol-24-methyl transferase of the above compound in Table 11 is described in Table 13.

[8] = agar dilution method, fungicidal concentration relative to control drug Miconazole (=4)
[9] = cultured lung cells derived from chinese hamster
[10] = C. albicans ATCC 11651, unit assumed
[11] = C. albicans ATCC 28838, unit assumed
[12] = C. albicans IFO 1385, unit assumed
[13] = C. albicans OY-003, unit assumed
[14] = C. albicans OY-019, unit assumed
[15] = C. krusei (KCTC7273), unit assumed
[16] = antifungal activity relative to Miconazole, agar dilution

SMILES	Relative Activity [1, 8]	LD50 ([3]; female)	LD50 ([3]; male)	general symptom [3]	lethal case [3]	weight change [3]	Genetic toxicity AMES test [4]	bacterial reverse mutation test (Ames test) result [4]	MIC [2, 10]	MIC [2, 11]	MIC [2, 12]	MIC [2, 13]	MIC [2, 14]	MIC ([2]; C. albicans U.K, unit assumed)	MIC ([2]; C. glabrata, unit assumed)	MIC ([2]; C. glulliermondi, unit assumed)	MIC [2, 15]	MIC ([2]; C. parapsilosis, unit assumed)	melting point	Relative Activity [1, 16]	also measured
CCCCCCCCCCCC1=[N+](Cc2ccc(C(C)(C)C)cc2)CCc2cc(NC)c(OC)cc21	1	> 1500 mg/kg	> 2500 mg/kg	normal	not observed	normal	negative	negative	–	–	–	–	–	–	–	–	–	–	–	–	MIC ([2]; C. glabrata): 3.125; MIC ([2]; C. glulliermondi): 3.125; Genetic toxicity Chromosome abmormality test [5, 9]: negative; chromosome aberration test result [5, 9]: negative; Genetic toxicity Nucleus test ([6]; male ICR mice): negative; micronucleus test result ([6]; male ICR mice): negative
CCCCCCCCCCCC1=[N+](Cc2ccccc2F)CCc2cc(OC)c(OC)cc21.[Cl-] [Compound No. 12, 1-n-undecyl-2-(2-fluorophenyl)methyl-3,4-dihydro-6,7-dimethoxyisoquinolinium chloride]	2	> 1000 mg/kg	> 1500 mg/kg	normal	not observed	normal	negative	negative	1.56 µg/mL	1.56 µg/mL	3.12 µg/mL	1.56 µg/mL	3.12 µg/mL	1.56 µg/mL	1.56 µg/mL	1.56 µg/mL	6.25 µg/mL	1.56 µg/mL	–	–	Genetic toxicity Chromosome abmormality test [5]: negative; chromosome aberration test result [5]: negative; Genetic toxicity Nucleus test ([6]; male ICR mice): negative; micronucleus test result ([6]; mouse, in vivo): negative
CCCCCCCCCCCC1=[N+](Cc2ccc(C(C)(C)C)cc2)CCc2cc3c(cc21)oc(=O)n3C.[Br-] [Compound No. 115, 7,8-dihydro-1-methyl-6-(4-t-butylphenyl)methyl-5-undecyloxazolo[4,5-g]isoquinolinium-2 (1H)-one bromide]	2	–	–	–	–	–	–	–	–	–	–	–	–	–	–	–	–	–	–	–	pIC50 [7]: 4.30 to 5.30
CCCCCCCCCCCC1=[N+](c2ccc(C(C)(C)C)cc2)CCc2cc(CNC(=O)OCC)ccc21.[Br-] [Compound No. 118, ethyl 3,4-dihydro-2-(4-t-butylphenyl)-1-undecylisoquinolinium-6-ylmethylcabamate bromide]	2	–	–	–	–	–	–	–	–	–	–	–	–	–	–	–	–	–	–	–	pIC50 [7]: 4.30 to 5.30
CCCCCCCCCCCC1=[N+](Cc2ccc(NC(=O)OC(C)(C)C)cc2)CCc2cc(OC)c(OC)cc21.[Cl-] [Compound No. 120, 2-(4-t-butylalcoholcarbonylaminophenyl)methyl-3,4-dihydro-6,7-dimethoxy-1-undecylisoquinolinium chloride]	–	–	–	–	–	–	–	–	1.56 µg/mL	1.56 µg/mL	3.12 µg/mL	1.56 µg/mL	3.12 µg/mL	1.56 µg/mL	6.25 µg/mL	3.12 µg/mL	1.56 µg/mL	3.12 µg/mL	–	–	pIC50 [7]: > 5.30
CCCCCCCCCCCC1=[N+](Cc2ccc(C(C)(C)C)cc2)CCc2cc(OC)c(OC)cc21.[Cl-] [Compound No. 127, 1-undecyl-2-(4-t-butylphenyl)methyl-3,4-dihydro-6,7-dimethoxy isoquinolinium chloride]	1	–	–	–	–	–	–	–	0.78 µg/mL	1.56 µg/mL	0.78 µg/mL	1.56 µg/mL	0.78 µg/mL	1.56 µg/mL	1.56 µg/mL	1.56 µg/mL	1.56 µg/mL	1.56 µg/mL	85 °C	–	–
CCCCCCCCOc1c(C[N+]2=C(CCc3ccc(C(C)(C)C)cc3)c3cc(OC)c(OC)cc3CC2)cccc1OC [Compound No. 134, 1-(2-(4-t-butylphenyl))ethyl-2-(2-octyloxy-3-methoxyphenyl)methyl-3,4-dihydro-6,7-dimethoxy isoquinolinium chloride]	1	> 1000 mg/kg	> 1200 mg/kg	normal	not observed	normal	negative	negative	3.12 µg/mL	1.56 µg/mL	3.12 µg/mL	1.56 µg/mL	1.56 µg/mL	1.56 µg/mL	3.12 µg/mL	1.56 µg/mL	3.12 µg/mL	6.25 µg/mL	–	–	Genetic toxicity Chromosome abmormality test [5]: negative; chromosome aberration test result [5]: negative; Genetic toxicity Nucleus test ([6]; male ICR mice): negative; micronucleus test result ([6]; mouse, in vivo): negative
CCCc1c2cc(OC)c(OC)cc2cc[n+]1Cc1c(F)cccc1Cl.[Cl-] [Compound No. 139, 1-propyl-2-(2-chloro-6-fluorophenyl)methyl-6,7-dimethoxy-isoquinolinium chloride]	–	–	–	–	–	–	–	–	–	–	–	–	–	–	–	–	–	–	78 °C	6	–
COc1cc2cc[n+](Cc3c(F)cccc3Cl)c(C)c2cc1OC.[Cl-] [Compound No. 140, 1-methyl-2-(2-chloro-6-fluorophenyl)methyl-6,7-dimethoxyisoquinolinium chloride]	–	–	–	–	–	–	–	–	–	–	–	–	–	–	–	–	–	–	96 °C	6	–
COc1cc2cc[n+](Cc3ccc(C(C)(C)C)cc3)c(C)c2cc1OC.[Cl-] [Compound No. 143, 1-methyl-2-(4-t-butylphenyl)methyl-6,7-dimethoxyisoquinolinium chloride]	–	–	–	–	–	–	–	–	–	–	–	–	–	–	–	–	–	–	350 °C	6	–
CCCc1c2cc(OC)c(OC)cc2cc[n+]1Cc1ccc(C(C)(C)C)cc1.[Cl-] [Compound No. 144, 1-propyl-2-(4-t-butylphenyl)methyl-6,7-dimethoxyisoquinolinium chloride]	–	–	–	–	–	–	–	–	–	–	–	–	–	–	–	–	–	–	79 °C	6	–
CCCCCCc1c2cc(OC)c(OC)cc2cc[n+]1Cc1ccc(C(C)(C)C)cc1.[Cl-] [Compound No. 145, 1-hexyl-2-(4-t-butylphenyl)methyl-6,7-dimethoxyisoquinolinium chloride]	–	–	–	–	–	–	–	–	–	–	–	–	–	–	–	–	–	–	105 °C	4	–
CCCCCCCCCCCCCCCc1c2cc(OC)c(OC)cc2cc[n+]1Cc1ccc(C(C)(C)C)cc1.[Cl-] [Compound No. 147, 1-pentadecyl-2-(4-t-butylphenyl)methyl-6,7-dimethoxyisoquinolinium chloride]	–	–	–	–	–	–	–	–	–	–	–	–	–	–	–	–	–	–	120 °C	1	–
CCCCCCCCOc1c(C[n+]2ccc3cc(OC)c(OC)cc3c2CCc2ccc(C(C)(C)C)cc2)cccc1OC [Compound No. 148, 1-(2-(4-t-butylphenyl))ethyl-2-(2-octyloxy)-3-dimethoxyphenyl)methyl-6,7-dimethoxyisoquinolinium chloride]	–	> 1200 mg/kg	> 1500 mg/kg	normal	not observed	normal	negative	negative	1.56 µg/mL	1.56 µg/mL	1.56 µg/mL	1.56 µg/mL	1.56 µg/mL	1.56 µg/mL	3.12 µg/mL	1.56 µg/mL	1.56 µg/mL	3.12 µg/mL	–	1	MIC ([2]; C. albicnas ATCC 10231, unit assumed): 0.78 µg/mL; Genetic toxicity Chromosome abmormality test [5]: negative; chromosome aberration test result [5]: negative; Genetic toxicity Nucleus test ([6]; male ICR mice): negative; micronucleus test result ([6]; mouse, in vivo): negative
COc1cc2cc[n+](Cc3cccc(OC)c3OCc3c(F)cccc3Cl)c(CCc3ccc(C(C)(C)C)cc3)c2cc1OC [Compound No. 150, 1-(2-(4-t-butylphenyl))ethyl-2-(2-(2-chloro-6-fluorobenzyloxy)-3-methoxyphenyl)methyl-6,7-dimethoxyisoquinolinium chloride]	–	> 1500 mg/kg	> 2000 mg/kg	normal	not observed	normal	negative	negative	1.56 µg/mL	1.56 µg/mL	6.25 µg/mL	0.78 µg/mL	1.56 µg/mL	0.78 µg/mL	12.5 µg/mL	1.6 µg/mL	1.56 µg/mL	12.5 µg/mL	–	1	Genetic toxicity Chromosome abmormality test [5]: negative; chromosome aberration test result [5]: negative; Genetic toxicity Nucleus test ([6]; male ICR mice): negative; micronucleus test result ([6]; mouse, in vivo): negative
